US8217063B2, “Lactam-substituted dicarboxylic acids and use thereof” (Bayer Intellectual Property GmbH, priority 2007, dated 2012)

Experiments:
[1] = molecular target: T1, recombinant guanylate cyclase reporter cell line (Rattus norvegicus, UniProt P20595); assay: sGC-activating activity in the CHO reporter cell in vitro; type: cell-based
T1 construct: expressed in transfected cells; host or cells: CHO
T1 sequence (P20595 1-619): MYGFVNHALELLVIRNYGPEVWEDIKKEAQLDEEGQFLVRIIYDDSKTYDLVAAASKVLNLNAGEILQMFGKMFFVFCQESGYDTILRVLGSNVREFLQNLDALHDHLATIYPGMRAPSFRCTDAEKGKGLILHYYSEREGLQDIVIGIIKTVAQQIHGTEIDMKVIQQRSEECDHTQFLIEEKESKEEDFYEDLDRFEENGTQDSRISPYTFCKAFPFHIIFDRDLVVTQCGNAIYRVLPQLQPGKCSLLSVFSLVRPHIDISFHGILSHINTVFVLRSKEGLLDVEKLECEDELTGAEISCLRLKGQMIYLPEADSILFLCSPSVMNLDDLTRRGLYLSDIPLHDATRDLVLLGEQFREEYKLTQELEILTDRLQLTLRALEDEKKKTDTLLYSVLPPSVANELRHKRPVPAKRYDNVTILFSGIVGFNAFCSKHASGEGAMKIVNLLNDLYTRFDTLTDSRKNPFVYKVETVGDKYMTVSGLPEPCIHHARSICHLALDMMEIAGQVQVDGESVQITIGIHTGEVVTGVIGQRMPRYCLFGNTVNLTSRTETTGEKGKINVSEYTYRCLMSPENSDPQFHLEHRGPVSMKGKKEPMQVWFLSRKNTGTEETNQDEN
T1 sequence (P19686 1-690 partner): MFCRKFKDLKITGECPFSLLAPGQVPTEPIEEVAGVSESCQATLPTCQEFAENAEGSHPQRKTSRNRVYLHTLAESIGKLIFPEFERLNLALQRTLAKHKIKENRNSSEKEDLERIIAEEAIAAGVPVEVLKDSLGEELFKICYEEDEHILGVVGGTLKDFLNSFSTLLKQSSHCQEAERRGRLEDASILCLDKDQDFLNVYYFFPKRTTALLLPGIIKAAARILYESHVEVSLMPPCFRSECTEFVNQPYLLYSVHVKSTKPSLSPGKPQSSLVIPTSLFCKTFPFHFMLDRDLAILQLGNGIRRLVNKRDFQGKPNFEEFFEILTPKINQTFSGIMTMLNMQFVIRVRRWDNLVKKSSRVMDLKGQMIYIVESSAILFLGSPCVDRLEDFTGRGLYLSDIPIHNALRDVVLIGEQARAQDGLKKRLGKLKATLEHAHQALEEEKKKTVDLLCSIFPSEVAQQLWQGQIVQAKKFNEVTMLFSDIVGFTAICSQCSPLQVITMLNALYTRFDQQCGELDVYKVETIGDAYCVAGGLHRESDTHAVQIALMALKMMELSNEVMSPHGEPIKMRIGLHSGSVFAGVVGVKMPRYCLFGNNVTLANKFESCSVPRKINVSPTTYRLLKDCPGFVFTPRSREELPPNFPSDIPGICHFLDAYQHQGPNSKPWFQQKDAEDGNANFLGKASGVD
Procedure: B-3. Action at Recombinant Guanylate Cyclase Reporter Cell Lines
The cellular action of the compounds according to the invention is determined using a recombinant guanylate cyclase reporter cell line, as described in F. Wunder et al., Anal. Biochem. 339, 104-112 (2005).

[2] = system: saphenous artery; assay: Vasorelaxant effect in vitro (phenylephrine-contracted artery rings); set-up: species or system Rabbits; details: Oryctolagus cuniculus; rabbit saphenous artery rings, contraction induced by phenylephrine
Procedure: B-1. Vasorelaxant Effect In Vitro:
Rabbits are anesthetized and sacrificed by intravenous injection of thiopental sodium (about 50 mg/kg) and exsanguinated. The saphenous artery is removed and divided into rings 3 mm wide. The rings are mounted singly on in each case a pair of triangular hooks open at the end and made of 0.3 mm-thick special wire (Remanium®). Each ring is placed under an initial tension in 5 ml organ baths with Krebs-Henseleit solution which is at 37° C., is gassed with carbogen and has the following composition: NaCl 119 mM; KCl 4.8 mM; CaCl2×2H2O 1 mM; MgSO4×7H2O 1.4 mM; KH2PO4 1.2 mM; NaHCO3 25 mM; glucose 10 mM; bovine serum albumin 0.001%. The force of contraction is detected with Statham UC2 cells, amplified and digitized via A/D converters (DAS-1802 HC, Keithley Instruments, Munich) and recorded in parallel on chart recorders. Contractions are induced by addition of phenylephrine.
After several (generally 4) control cycles, the substance to be investigated is added in each further run in increasing dosage, and the height of the contraction achieved under the influence of the test substance is compared with the height of the contraction reached in the last preceding run. The concentration necessary to reduce the contraction reached in the preceding control by 50% is calculated from this (IC50). The standard application volume is 5 μl. The proportion of DMSO in the bath solution corresponds to 0.1%.

[3] = molecular target: T2, Heme-containing sGC (Rattus norvegicus, UniProt P20595); assay: Stimulation of recombinant soluble guanylate cyclase (sGC) in vitro, heme-containing enzyme; type: biochemical; details: 0.0 μM Example 3
T2 construct: made in house; host or cells: baculovirus/Sf9
T2 sequence (P20595 1-619): T1 sequence (P20595 1-619)
T2 sequence (P19686 1-690 partner): T1 sequence (P19686 1-690 partner)
Excerpt: B-2. Stimulation of Recombinant Soluble Guanylate Cyclase (sGC) In Vitro:
Hoenicka, E. M. Becker, H. Apeler, T. Sirichoke, H. Schroeder, R. Gerzer and J.-P. Stasch, “Purified soluble guanylyl cyclase expressed in a baculovirus/Sf9 system: Stimulation by YC-1, nitric oxide, and carbon oxide”, J. Mol. Med. 77 (1999), 14-23. The heme-free guanylate cyclase is obtained by adding Tween 20 to the sample buffer (0.5% in the final concentration).
The activation of sGC by a test substance is reported as n-fold stimulation of the basal activity.

| Compound | MEC (minimum effective concentration) [1] [nM] | IC50 [2] [µM] | also measured |
| --- | --- | --- | --- |
| O=C(O)c1ccc(CCC(/C=C/c2ccccc2OCCCCCN2CCCCC2=O)Cc2ccc(C(=O)O)cc2)cc1 (racemic) [Example 7, 4-[(4E)-3-(4-Carboxybenzyl)-5-(2-{[5-(2-oxopiperidin-1-yl)pentyl]oxy}phenyl)pent-4-en-1-yl]-benzoic acid] | 1 | – | – |
| O=C(O)c1ccc(CCC(/C=C/c2ccccc2OCCCCCN2CCOC2=O)Cc2ccc(C(=O)O)cc2)cc1 (racemic) [Example 8, 4-[(4E)-3-(4-Carboxybenzyl)-5-(2-{[5-(2-oxo-1,3-oxazolidin-3-yl)pentyl]oxy}phenyl)pent-4-en-1-yl]benzoic acid] | 1 | – | – |
| CN1CCCN(CCCCCOc2ccccc2/C=C/C(CCc2ccc(C(=O)O)cc2)Cc2ccc(C(=O)O)cc2)C1=O (racemic) [Example 10, 4-[(4E)-3-(4-Carboxybenzyl)-5-(2-{[5-(3-methyl-2-oxotetrahydropyrimidin-1(2H)-yl)pentyl]oxy}-phenyl)pent-4-en-1-yl]benzoic acid] | 3 | – | – |
| O=C(O)c1ccc(CCC(/C=C/c2ccccc2OCCCCN2CCCC2=O)Cc2ccc(C(=O)O)cc2)cc1 (racemic) [Example 11, 4-[(4E)-3-(4-Carboxybenzyl)-5-{2-[4-(2-oxopyrrolidin-1-yl)butoxy]phenyl}pent-4-en-1-yl]benzoic acid] | <1 | – | – |
| O=C(O)c1ccc(CCC(/C=C/c2ccccc2OCCN2CCOC2=O)Cc2ccc(C(=O)O)cc2)cc1 (racemic) [Example 12, 4-[(4E)-3-(4-Carboxybenzyl)-5-{2-[2-(2-oxo-1,3-oxazolidin-3-yl)ethoxy]phenyl}pent-4-en-1-yl]-benzoic acid] | 100 | – | – |
| O=C(O)c1ccc(CCC(/C=C/c2ccccc2OCCCN2CCOCC2=O)Cc2ccc(C(=O)O)cc2)cc1 (single isomer, unassigned) [Example 4, 4-[(4E)-3-(4-Carboxybenzyl)-5-{2-[3-(3-oxomorpholin-4-yl)propoxy]phenyl}pent-4-en-1-yl]-benzoic acid] | 2 | 0.33 | – |
| O=C(O)c1ccc(CCC(/C=C/c2ccccc2OCCCN2CCOC2=O)Cc2ccc(C(=O)O)cc2)cc1 (single isomer, unassigned) [Example 5, 4-[(4E)-3-(4-Carboxybenzyl)-5-{2-[3-(2-oxo-1,3-oxazolidin-3-yl)propoxy]phenyl}pent-4-en-1-yl]-benzoic acid] | – | 0.058 | – |
| O=C(O)c1ccc(CCC(/C=C/c2cc(F)ccc2OCCCN2CCCC2=O)Cc2ccc(C(=O)O)cc2)cc1 (single isomer, unassigned) [Example 6, 4-[(4E)-3-(4-Carboxybenzyl)-5-{5-fluoro-2-[3-(2-oxopyrrolidin-1-yl)propoxy]phenyl}pent-4-en-1-yl]benzoic acid] | 3 | 0.135 | – |
| CCN(CC)[N+]([O-])=NO [DEA/NO, 2-(N,N-diethylamino)diazenolate 2-oxide, reference compound] | – | – | Stimulation (n-fold) of sGC by DEA/NO alone ([3]; 0.1 μM DEA/NO): 18.5 n-fold |
| O=C(O)c1ccc(CCC(/C=C/c2cc(F)ccc2OCCCN2CCCC2=O)CCc2ccc(C(=O)O)cc2)cc1 [Example 1, 4-[(4E)-3-[2-(4-Carboxyphenyl)ethyl]-5-{5-fluoro-2-[3-(2-oxopyrrolidin-1-yl)propoxy]phenyl}-pent-4-en-1-yl]benzoic acid] | 3 | 0.39 | – |
| O=C(O)c1ccc(CCC(/C=C/c2ccccc2OCCCN2CCCC2=O)CCc2ccc(C(=O)O)cc2)cc1 [Example 2, 4-[(4E)-3-[2-(4-Carboxyphenyl)ethyl]-5-{2-[3-(2-oxopyrrolidin-1-yl)propoxy]phenyl}pent-4-en-1-yl]benzoic acid] | 3 | 0.255 | – |
| CC1OCCN(CCCCCOc2ccccc2/C=C/C(CCc2ccc(C(=O)O)cc2)Cc2ccc(C(=O)O)cc2)C1=O (centres unmarked) [Example 9, 4-[(4E)-3-(4-Carboxybenzyl)-5-(2-[5-(2-methyl-3-oxomorpholin-4-yl)pentyl]oxy 1-phenyl)pent-4-en-1-yl]benzoic acid] | 1 | – | – |
| O=c1onc2cnc3ccccc3n12 [ODQ, 1H-1,2,4-oxadiazole-(4,3a)-quinoxalin-1-one, reference compound] | – | – | Stimulation (n-fold) of sGC with ODQ alone ([3]; 10 μM ODQ): 3.9 n-fold |
